# Measurements reported in patent US20080235824A1, “Use of Esterase Genes as Selectable Markers for Transforming Plant Cells” (priority 2006, published 2008).
# Columns and labels:
# [1] = system: tomato cultivar Micro-Tom leaf explants; assay: Agrobacterium transformation of tomato with selection on detergent or kanamycin; type: cell-based, Lycopersicon esculentum; conditions: for No. of independent calli forming shoots / No. of rooted shoots / Transformation frequency (%): tomato Micro-Tom, pIPG768 bovine PGE; for Transformation frequency (%): confirmed by PCR
# Text: Transgenic tomato (Lycopersicon esculentum) cultivar “Micro-Tom” plants were created using the Agrobacterium tumefaciens DNA delivery method [Riggs et al., 2001; Sun et al., 2006] using pIPG768. Selection was either on 1% Tween 20 added to both shoot and root regeneration media. As controls for comparative purposes, 100 micrograms/ml kanamycin was used.
# [2] = system: tobacco cultivar Xanthi leaf explants; assay: Agrobacterium transformation of tobacco with selection on detergent or kanamycin; type: cell-based, Nicotiana tabacum; conditions: pIPG833 bovine PGE, 0.5% Tween, 73 explants
# [3] = system: rooting tomato plants; assay: Root growth of rooting tomato plants on 1% Tween 20 medium; type: in vivo
# Text: The plant on the left, labeled “731”, was transformed using kanamycin selection and the kanamycin resistance gene driven by the 35S promoter on pIPG731 (ie., “empty” vector, without a lipase gene). The plant on the right, labeled “768”, was similarly transformed using kanamycin selection and the kanamycin resistance gene driven by the 35S promoter on pIPG768 (carrying a lipase gene). Both plants were rooted, kanamycin resistant transformants. Both plants, with roots removed to ca. 1-4 mm from the base, were transferred to rooting medium containing 1% Tween 20. After one week, the roots of both plants had grown to about the extent of the pIPG731 transformed plant, and the small ink marks were placed on the plates to indicate the extent of the root growth. Two weeks later, the roots on the plant transformed with pIPG731 had ceased to elongate and its roots started to appear brown at the growing tips, while the roots on the plant transformed with pIPG768 continued growing.
# In order to test if the rooting medium inhibited or killed nontransgenic tomato that were rooting, regenerating nontransgenic tomato plants that were rooting, as well as transgenic tomato plants carrying pIPG678 that were rooting were placed on 1% Tween 20 medium.
# [4] = system: geranium petiole explants; assay: Survival of geranium petiole explants on regeneration medium with detergents; type: cell-based, Pelargonium X hortorum; conditions: for Survival of geranium petiole explants on regeneration medium: surviving/total explants
# Experimental: Tween 20, a nonionic, fatty acid ester detergent, was evaluated as a potential selective agent for use in geranium (Pelargonium X hortorum) transformation experiments by placing geranium petiole explants into tissue culture with the addition to Tween 20 to the regeneration (shooting) medium normally used in geranium transformations (Robichon et al., 1995). Tween 20 was added at three concentrations: 1%, 0.1% and 0.01%. Each treatment consisted of 40 sterilized petiole explants placed in four tissue culture plates carrying 10 explants each. Survival of the explants was assayed weekly over four weeks on these media. Potential selective agent Span 20, also a nonionic, fatty acid ester detergent, was similarly evaluated, except that concentrations of 1%, 0.5% and 0.25% were evaluated over a twelve week period of time. The nonionic detergent Triton X-100, which is not a fatty acid ester detergent, was included for comparative purposes.
# [5] = system: tobacco cultivar Xanthi leaf explants; assay: Agrobacterium transformation of tobacco with selection on detergent or kanamycin; type: cell-based, Nicotiana tabacum; conditions: for Transformation frequency (%): confirmed by PCR
# Text: Transgenic tobacco (Nicotiana tabacum) cultivar “Xanthi” plants were created using the Agrobacterium tumefaciens DNA delivery method [Horsch et al., 1985] using pIPG833. Selection was on 1% or on 0.05% Tween 20 added to both shoot and root regeneration media. As a control for comparative purposes, pIPG786 was used (carrying the nptII gene for kanamycin resistance) for transformation and 100 micrograms/ml kanamycin was used for selection.
# Transgenic tobacco (Nicotiana tabacum) cultivar “Xanthi” plants were created using the Agrobacterium tumefaciens DNA delivery method [Horsch et al., 1985] using pIPG833. Selection was on 1% or on 0.05% Span 20 added to both shoot and root regeneration media.
# Transgenic tobacco (Nicotiana tabacum) cultivar “Xanthi” plants were created using the Agrobacterium tumefaciens DNA delivery method [Horsch et al., 1985] using pIPG875. Selection was on 1% Span 20 added to the shoot regeneration medium and 0.05% Span 20 added to the root regeneration medium.
# [6] = system: tomato leaf explants; assay: Survival of tomato leaf explants on regeneration medium with detergents; type: cell-based, Lycoperisicon esculentum; conditions: 1% detergent; for Survival of tomato leaf explants on regeneration medium: surviving/total explants
# Experimental: Tween 20 was similarly evaluated as a potential selective agent for use in tomato (Lycoperisicon esculentum) transformations by placing tomato leaf explants placed into tissue culture; Tween 20 was added to tomato regeneration (shooting) medium normally used in tomato transformations (Riggs et al., 2001) at a 1% concentration. Each treatment consisted of 40 sterilized leaf explants placed in four tissue culture plates carrying 10 explants each. Survival of the explants was assayed weekly over four weeks on these media.
# [7] = 1% Tween in shoot and root media, Exp. 1, 253 explants
# [8] = tobacco Xanthi, pIPG833 bovine PGE, 1% Tween, 73 explants
substance,measurement,setting,value
Tween 20,Share of tomato leaf material provided with bovine PGE on pIPG768 producing green shoots,[1]; regeneration medium with 1% Tween 20,nearly half
same,Fate of tomato leaf material provided with empty vector control plasmid,"[1]; regeneration medium with 1% Tween 20, 30 days of selection",either died or produced a small amount of brown callus that died
same,No. of independent calli forming shoots,[1]; [7],25
same,No. of rooted shoots,[1]; [7],25
same,Transformation frequency (%),"[1]; 1% Tween, Exp. 1, 253 explants",7%
same,No. of independent calli forming shoots,"[1]; 1% Tween, Exp. 2, 204 explants",15
same,No. of rooted shoots,"[1]; 1% Tween, Exp. 2, 204 explants",15
same,Transformation frequency (%),"[1]; 1% Tween, Exp. 2, 204 explants",4%
same,No. of independent calli forming shoots,"[1]; 1% Tween, Exp. 3, 275 explants",48
same,No. of rooted shoots,"[1]; 1% Tween, Exp. 3, 275 explants",48
same,Transformation frequency (%),"[1]; 1% Tween, Exp. 3, 275 explants",4%
same,No. of rooted shoots,[2],73
same,Transformation frequency (%),[2]; confirmed by PCR,6%
same,Growth of transgenic tomato plants expressing bovine PGE,[3],did not affect growth
same,Root growth of nontransgenic rooting tomato plants,[3],completely and almost immediately inhibited root growth
same,Survival of geranium petiole explants on regeneration medium,"[4]; 0.01% detergent, Week 1",33/40
same,Survival of geranium petiole explants on regeneration medium,"[4]; 0.01% detergent, Week 2",27/40
same,Survival of geranium petiole explants on regeneration medium,"[4]; 0.01% detergent, Week 3",20/40
same,Survival of geranium petiole explants on regeneration medium,"[4]; 0.01% detergent, Week 4",0/40
same,Survival of geranium petiole explants on regeneration medium,"[4]; 0.1% detergent, Week 1",31/40
same,Survival of geranium petiole explants on regeneration medium,"[4]; 0.1% detergent, Week 2",10/40
same,Survival of geranium petiole explants on regeneration medium,"[4]; 0.1% detergent, Week 3",0/40
same,Survival of geranium petiole explants on regeneration medium,"[4]; 0.1% detergent, Week 4",0/40
same,Survival of geranium petiole explants on regeneration medium,"[4]; 1% detergent, Week 1",10/40
same,Survival of geranium petiole explants on regeneration medium,"[4]; 1% detergent, Week 2",0/40
same,Survival of geranium petiole explants on regeneration medium,"[4]; 1% detergent, Week 3",0/40
same,Survival of geranium petiole explants on regeneration medium,"[4]; 1% detergent, Week 4",0/40
same,Killing of geranium explants in tissue culture (in words),[4]; summary of Table 1,"completely killed all geranium explants in four weeks, even at the lowest level (0.01%) tested"
same,Tissue provided with pIPG833 producing shoots,[5]; regeneration medium with 0.05% detergent,100%
same,Tobacco leaf material provided with bovine PGE on pIPG833 producing green shoots,[5]; regeneration medium with 1% detergent,16%
same,Transformation efficiency,"[5]; tobacco Xanthi, pIPG833, detergent at the 0.05% level",6%
same,No. of independent calli forming shoots,"[5]; tobacco Xanthi, pIPG833 bovine PGE, 0.5% Tween, 73 explants",73
same,No. of independent calli forming shoots,"[5]; tobacco Xanthi, pIPG833 bovine PGE, 1% Tween in shoot and root media, 73 explants",12
same,No. of rooted shoots,[5]; [8],12
same,Transformation frequency (%),[5]; [8],5%
same,Transformation frequency (%),"[5]; tobacco Xanthi, pIPG833 bovine PGE, 1% Tween, 73 explants, listed as Tween",5%
same,Survival of tomato leaf explants on regeneration medium,[6]; Week 1,8/40
same,Survival of tomato leaf explants on regeneration medium,[6]; Week 2,8/40
same,Survival of tomato leaf explants on regeneration medium,[6]; Week 3,3/40
same,Survival of tomato leaf explants on regeneration medium,[6]; Week 4,0/40
same,Killing of tomato explants in tissue culture (in words),[6]; summary of Table 2,completely killed all tomato explants in four weeks
